According to ChEMBL document CHEMBL3045476, “Prediction of antiproliferative activity of some flavone derivatives: QSAR study” (2009):

Test system: SK-HEP1
Assay: Antiproliferative activity against Homo sapiens (human) SKHEP1 cells
Format: functional
Conditions: SK-HEP1, read-out: pGI50 (converted)

`O=c1cc(-c2ccccc2)oc2cc(OC/C(=N/O)c3ccc(F)cc3)ccc12` and `O=c1cc(-c2ccccc2)oc2ccc(OC/C(=N/O)c3ccc(F)cc3)cc12` are within 1.5-fold of each other in GI50: 2.3 µM for the first, 2.8 µM for the second.

`CO/N=C(/COc1c(-c2ccccc2)oc2ccccc2c1=O)c1ccccc1` and `O=c1c(OC/C(=N/O)c2ccccc2)c(-c2ccccc2)oc2ccccc12` are within 1.5-fold of each other in GI50: 7.11 µM for the first, 7.21 µM for the second.

`O=c1c(-c2ccccc2)coc2cc(OC/C(=N/O)c3ccc(F)cc3)ccc12` and `CO/N=C(/COc1ccc2c(=O)c(-c3ccccc3)coc2c1)c1ccc(F)cc1` are within 1.5-fold of each other in GI50: 6.6 µM for the first, 6.09 µM for the second.

Going from `CO/N=C(/COc1ccc2oc(-c3ccccc3)cc(=O)c2c1)c1ccc(F)cc1` to `CO/N=C(/COc1ccc2c(=O)cc(-c3ccccc3)oc2c1)c1ccc(F)cc1`, the GI50 falls from 7.9 µM to 3.3 µM (2.4-fold).

First: COc1ccc(/C(COc2c(-c3ccccc3)oc3ccccc3c2=O)=N\O)cc1
Second: CO/N=C(/COc1c(-c2ccccc2)oc2ccccc2c1=O)c1ccc(OC)cc1
The GI50 of the first is 4.1-fold lower: 2.7 µM for the first, 11 µM for the second.

Going from `CO/N=C(/COc1c(-c2ccccc2)oc2ccccc2c1=O)c1ccc(F)cc1` to `O=c1c(OC/C(=N/O)c2ccc(F)cc2)c(-c2ccccc2)oc2ccccc12`, the GI50 falls from 13 µM to 6.9 µM (1.9-fold).

Compared with `CO/N=C(/COc1ccc2c(=O)cc(-c3ccccc3)oc2c1)c1ccccc1`, `CO/N=C(/COc1ccc2oc(-c3ccccc3)cc(=O)c2c1)c1ccccc1` is 4.1-fold higher in GI50: 2 µM for the first, 8.2 µM for the second.

`C/C(COc1ccc2oc(-c3ccccc3)cc(=O)c2c1)=N\O` and `C/C(COc1ccc2c(=O)cc(-c3ccccc3)oc2c1)=N\O` are within 1.5-fold of each other in GI50: 1.9 µM for the first, 2.8 µM for the second.

Going from `O=c1cc(-c2ccccc2)oc2cc(OC/C(=N/O)c3ccccc3)ccc12` to `O=c1c(-c2ccccc2)coc2cc(OC/C(=N/O)c3ccccc3)ccc12`, the GI50 rises from 2 µM to 6.39 µM (3.2-fold).

Going from `CO/N=C(\C)COc1c(-c2ccccc2)oc2ccccc2c1=O` to `C/C(COc1c(-c2ccccc2)oc2ccccc2c1=O)=N\O`, the GI50 falls from 9.2 µM to 2.6 µM (3.5-fold).

`COc1ccc(/C(COc2ccc3c(=O)cc(-c4ccccc4)oc3c2)=N\O)cc1` and `CO/N=C(/COc1ccc2c(=O)cc(-c3ccccc3)oc2c1)c1ccc(OC)cc1` are within 1.5-fold of each other in GI50: 5.59 µM for the first, 4.79 µM for the second.

`CO/N=C(/COc1ccc2c(=O)c(-c3ccccc3)coc2c1)c1ccc(OC)cc1` and `COc1ccc(/C(COc2ccc3c(=O)c(-c4ccccc4)coc3c2)=N\O)cc1` are within 1.5-fold of each other in GI50: 5.29 µM for the first, 5.5 µM for the second.

`CO/N=C(\C)COc1ccc2c(=O)c(-c3ccccc3)coc2c1` and `C/C(COc1ccc2c(=O)c(-c3ccccc3)coc2c1)=N\O` are within 1.5-fold of each other in GI50: 6.39 µM for the first, 7.29 µM for the second.

`CO/N=C(\C)COc1ccc2c(=O)cc(-c3ccccc3)oc2c1` and `CO/N=C(/COc1ccc2oc(-c3ccccc3)cc(=O)c2c1)c1ccc(OC)cc1` are the same in GI50: 2 µM for the first, 2 µM for the second.

For `CO/N=C(/COc1ccc2c(=O)c(-c3ccccc3)coc2c1)c1ccccc1`, the GI50 was 7.39 µM.
